Patent US10688131B2, “Peptides and scaffolds for use in immunotherapy against head and neck squamous cell carcinoma and other cancers” (Immatics Biotechnologies GmbH, priority 2016, dated 2020)

Assays:
CD8+ T cells = experiment: In vitro T-cell priming assay with aAPCs loaded with peptide/MHC complexes and anti-CD28 antibody, pMHC multimer readout; assay type: cell-based, human; details: for Wells positive [%]: percentage of positive wells among evaluable, HLA-A*02 restricted peptides; for Donors: percentage of positive donors; for Donors / Wells: HLA-A*02 healthy donors, three stimulation cycles; for Wells: percentage of positive wells
Description: In order to obtain information regarding the immunogenicity of the TUMAPs of the present invention, the inventors performed investigations using an in vitro T-cell priming assay based on repeated stimulations of CD8+ T cells with artificial antigen presenting cells (aAPCs) loaded with peptide/MHC complexes and anti-CD28 antibody.
In order to perform in vitro stimulations by artificial antigen presenting cells loaded with peptide-MHC complex (pMHC) and anti-CD28 antibody, the inventors first isolated CD8+ T cells from fresh HLA-A*02 leukapheresis products via positive selection using CD8 microbeads (Miltenyi Biotech, Bergisch-Gladbach, Germany) of healthy donors obtained from the University clinics Mannheim, Germany, after informed consent.
PBMCs and isolated CD8+ lymphocytes were incubated in T-cell medium (TCM) until use consisting of RPMI-Glutamax (Invitrogen, Karlsruhe, Germany) supplemented with 10% heat inactivated human AB serum (PAN-Biotech, Aidenbach, Germany), 100 U/ml Penicillin/100 μg/ml Streptomycin (Cambrex, Cologne, Germany), 1 mM sodium pyruvate (CC Pro, Oberdorla, Germany), 20 μg/ml Gentamycin (Cambrex). 2.5 ng/ml IL-7 (PromoCell, Heidelberg, Germany) and 10 U/ml IL-2 (Novartis Pharma, Nürnberg, Germany) were also added to the TCM at this step.
Generation of pMHC/anti-CD28 coated beads, T-cell stimulations and readout was performed in a highly defined in vitro system using four different pMHC molecules per stimulation condition and 8 different pMHC molecules per readout condition.
The purified co-stimulatory mouse IgG2a anti human CD28 Ab 9.3 (Jung et al., 1987) was chemically biotinylated using Sulfo-N-hydroxysuccinimidobiotin as recommended by the manufacturer (Perbio, Bonn, Germany). Beads used were 5.6 μm diameter streptavidin coated polystyrene particles (Bangs Laboratories, Illinois, USA).
pMHC used for positive and negative control stimulations were A*0201/MLA-001 (peptide […] (SEQ ID NO. 157) from modified Melan-A/MART-1) and A*0201/DDX5-001 ([…] from DDX5, SEQ ID NO. 158), respectively.
800.000 beads/200 μl were coated in 96-well plates in the presence of 4×12.5 ng different biotin-pMHC, washed and 600 ng biotin anti-CD28 were added subsequently in a volume of 200 μl. Stimulations were initiated in 96-well plates by co-incubating 1×10^6 CD8+ T cells with 2×10^5 washed coated beads in 200 μl TCM supplemented with 5 ng/ml IL-12 (PromoCell) for 3 days at 37° C. Half of the medium was then exchanged by fresh TCM supplemented with 80 U/ml IL-2 and incubating was continued for 4 days at 37° C. This stimulation cycle was performed for a total of three times. For the pMHC multimer readout using 8 different pMHC molecules per condition, a two-dimensional combinatorial coding approach was used as previously described (Andersen et al., 2012) with minor modifications encompassing coupling to 5 different fluorochromes. Finally, multimeric analyses were performed by staining the cells with Live/dead near IR dye (Invitrogen, Karlsruhe, Germany), CD8-FITC antibody clone SK1 (BD, Heidelberg, Germany) and fluorescent pMHC multimers. For analysis, a BD LSRII SORP cytometer equipped with appropriate lasers and filters was used. Peptide specific cells were calculated as percentage of total CD8+ cells. Evaluation of multimeric analysis was done using the FlowJo software (Tree Star, Oregon, USA). In vitro priming of specific multimer+CD8+ lymphocytes was detected by comparing to negative control stimulations.
Exemplary flow cytometry results after TUMAP-specific multimer staining for 2 peptides of the invention are shown in FIGS. 3A and 3B together with corresponding negative controls. Additional exemplary flow cytometry results after TUMAP-specific multimer staining for 3 peptides of the invention are shown in FIGS. 4A-4C together with corresponding negative controls.

HLA-A*02:01 = HLA-A*02:01 (Homo sapiens, UniProt P04439, D140Y/D185E/D98H/E176V/E277Q/G131W/G231S/I119V/I121R/I166T/I218V/L300P/L318F/N151K/N90K/P208A/P217A/Q86G/Q94H/R138H/R169H/T345S); experiment: MHC binding assay: UV-ligand exchange with β2m ELISA; details: binding of HLA-class I restricted peptides to HLA-A*02:01
Description: Candidate peptides for T cell based therapies according to the present invention were further tested for their MHC binding capacity (affinity). The individual peptide-MHC complexes were produced by UV-ligand exchange, where a UV-sensitive peptide is cleaved upon UV-irradiation, and exchanged with the peptide of interest as analyzed. Only peptide candidates that can effectively bind and stabilize the peptide-receptive MHC molecules prevent dissociation of the MHC complexes. To determine the yield of the exchange reaction, an ELISA was performed based on the detection of the light chain (β2m) of stabilized MHC complexes. The assay was performed as generally described in Rodenko et al. (Rodenko et al., 2006).
96 well MAXISorp plates (NUNC) were coated over night with 2 ug/ml streptavidin in PBS at room temperature, washed 4× and blocked for 1 h at 37° C. in 2% BSA containing blocking buffer. Refolded HLA-A*02:01/MLA-001 monomers served as standards, covering the range of 15-500 ng/ml. Peptide-MHC monomers of the UV-exchange reaction were diluted 100-fold in blocking buffer. Samples were incubated for 1 h at 37° C., washed four times, incubated with 2 ug/ml HRP conjugated anti-β2m for 1 h at 37° C., washed again and detected with TMB solution that is stopped with […]. Absorption was measured at 450 nm. Candidate peptides that show a high exchange yield (preferably higher than 50%, most preferred higher than 75%) are generally preferred for a generation and production of antibodies or fragments thereof, and/or T cell receptors or fragments thereof, as they show sufficient avidity to the MHC molecules and prevent dissociation of the MHC complexes.

Row | Substance | Wells positive [%] (CD8+ T cells) | Peptide exchange (MHC class I binding score, peptide exchange yield) (HLA-A*02:01) | Donors (CD8+ T cells) | Wells (CD8+ T cells)
1 | 29 (RLLPDLDEV; listed as Homo sapiens) [compound 29] | ++ (20%-49% = ++) | ++++ (>75% = ++++) |  | 
2 | 154 (KMWEELPEVV; listed as Homo sapiens) [compound 154] |  |  | ++++ (>=70% = ++++) | + (<20% = +)
3 | 19 (ALAKLLPLL; listed as Homo sapiens) [compound 19] | ++ (20%-49% = ++) | ++++ (>75% = ++++) |  | 
4 | 1 (GLAGGFGGPGFPV; listed as Homo sapiens) [compound 1] | + (<20% = +) | ++++ (>75% = ++++) |  | 
5 | 123 (LLSGDLIFL; listed as Homo sapiens) [compound 123] |  |  | ++++ (>=70% = ++++) | ++ (20%-49% = ++)
6 | 150 (ILAEEPIYIRV; listed as Homo sapiens) [compound 150] |  |  | ++++ (>=70% = ++++) | +++ (50%-69% = +++)
7 | 147 (ILMDPSPEYA; listed as Homo sapiens) [compound 147] |  |  | ++++ (>=70% = ++++) | +++ (50%-69% = +++)
8 | 3 (SLYGLGGSKRISI; listed as Homo sapiens) [compound 3] | + (<20% = +) | +++ (>50 = +++) |  | 
9 | 11 (VLFSSPPVI; listed as Homo sapiens) [compound 11] | ++ (20%-49% = ++) | ++++ (>75% = ++++) |  | 
10 | 105 (STYGGGLSV; listed as Homo sapiens) [compound 105] |  |  | ++++ (>=70% = ++++) | + (<20% = +)
11 | 26 (TLVDENQSWYL; listed as Homo sapiens) [compound 26] | ++ (20%-49% = ++) | +++ (>50 = +++) |  | 
12 | 30 (TLASLGYAVV; listed as Homo sapiens) [compound 30] | +++ (50%-69% = +++) | +++ (>50 = +++) |  | 
13 | 143 (YVYQNNIYL; listed as Homo sapiens) [compound 143] |  |  | ++ (20%-49% = ++) | + (<20% = +)
14 | 137 (GLAPFLLNAV; listed as Homo sapiens) [compound 137] |  |  | ++++ (>=70% = ++++) | + (<20% = +)
15 | 13 (SLVSYLDKV; listed as Homo sapiens) [compound 13] | ++ (20%-49% = ++) | ++++ (>75% = ++++) |  | 
16 | 8 (AQLNIGNVLPV; listed as Homo sapiens) [compound 8] | + (<20% = +) | ++++ (>75% = ++++) |  | 
17 | 127 (SLFGKKYIL; listed as Homo sapiens) [compound 127] |  |  | ++++ (>=70% = ++++) | ++ (20%-49% = ++)
18 | 118 (TLLQEQGTKTV; listed as Homo sapiens) [compound 118] |  |  | ++ (20%-49% = ++) | + (<20% = +)
19 | 135 (GLFSQHFNL; listed as Homo sapiens) [compound 135] |  |  | ++ (20%-49% = ++) | + (<20% = +)

Row | Substance | Wells positive [%] (CD8+ T cells) | Peptide exchange (MHC class I binding score, peptide exchange yield) (HLA-A*02:01) | Donors (CD8+ T cells) | Wells (CD8+ T cells)
20 | 35 (ALVGDVILTV; listed as Homo sapiens) [compound 35] |  | ++++ (>75% = ++++) |  | 
21 | 145 (LLYGKYVSV; listed as Homo sapiens) [compound 145] |  |  | ++++ (>=70% = ++++) | ++ (20%-49% = ++)
22 | 5 (VCPPGGIQEV; listed as Homo sapiens) [compound 5] |  | +++ (>50 = +++) |  | 
23 | 49 (YLWEAHTNI; listed as Homo sapiens) [compound 49] |  | ++++ (>75% = ++++) |  | 
24 | 71 (SLFPYVVLI; listed as Homo sapiens) [compound 71] |  | ++++ (>75% = ++++) |  | 
25 | 98 (SLYKGLLSV; listed as Homo sapiens) [compound 98] |  |  | ++++ (>=70% = ++++) | ++ (20%-49% = ++)
26 | 83 (QLLQYVYNL; listed as Homo sapiens) [compound 83] |  | ++++ (>75% = ++++) |  | 
27 | 53 (RLVEVGGDVQL; listed as Homo sapiens) [compound 53] |  | ++++ (>75% = ++++) |  | 
28 | 61 (FVAGYIAGV; listed as Homo sapiens) [compound 61] |  | ++++ (>75% = ++++) |  | 
29 | 113 (NLMASQPQL; listed as Homo sapiens) [compound 113] |  |  | ++++ (>=70% = ++++) | +++ (50%-69% = +++)
30 | 114 (VLVPYEPPQV; listed as Homo sapiens) [compound 114] |  |  | ++++ (>=70% = ++++) | + (<20% = +)
31 | 108 (SLYNLGGSKRISI; listed as Homo sapiens) [compound 108] |  |  | ++++ (>=70% = ++++) | + (<20% = +)
32 | 40 (LLTPLNLQI; listed as Homo sapiens) [compound 40] |  | +++ (>50 = +++) |  | 
33 | 52 (LLFTGLVSGV; listed as Homo sapiens) [compound 52] |  | +++ (>50 = +++) |  | 
34 | 45 (GLIEWLENTV; listed as Homo sapiens) [compound 45] |  | ++++ (>75% = ++++) |  | 
35 | 50 (ALSNVVHKV; listed as Homo sapiens) [compound 50] |  | ++++ (>75% = ++++) |  | 
36 | 32 (IQDAEGAIHEV; listed as Homo sapiens) [compound 32] |  | ++++ (>75% = ++++) |  | 
37 | 101 (GLLPSAESIKL; listed as Homo sapiens) [compound 101] |  |  | ++++ (>=70% = ++++) | + (<20% = +)
38 | 109 (KIQEILTQV; listed as Homo sapiens) [compound 109] |  |  | +++ (50%-69% = +++) | + (<20% = +)
